Broadly, the IC50 is the concentration that inhibits the measured activity by half.

In one experiment the target is T1, CDK9 (Homo sapiens, UniProt P50750).
T1 construct: full-length human kinases from Carna Biosciences; purchased Carna Biosciences 04-110
As to the kind of experiment: Kinase TR-FRET assay, CDK9. To be noted: full-length human kinase, 10 μM ATP. The experiment is classed as biochemical. As to the method:
Inhibition of the enzymatic activity of human kinases was evaluated in a Time-Resolved Fluorescence Resonance Energy Transfer (TR-FRET) assay in 384-well reaction plates. In this assay, full-length human kinases from Carna Biosciences—DYRK1A (NM_001396, ref. 04-130; 2.0 ng/μl), DYRK1B (NM_004714, ref. 04-131; 1.2 ng/p), CLK1 (NM_001162407, ref. 04-126; 0.7 ng/μl), CDK9 (NM_001261, ref. 04-110; 0.9 ng/μl), or GSK3β (NM_001146156, ref. 04-141; 2.0 ng/μl—were incubated for 40 minutes (DYRK1A and DYRK1B) or 100 minutes (CLK1, CDK9 and GSK3β) at room temperature with ATP (Sigma A2383, 10 μM) and a ULight™-labelled human Myelin Basic Protein (MBP) peptide substrate (Perkin Elmer TRF0109, 100 nM) in a reaction buffer composed of 50 mM HEPES pH7.4, 1 mM EGTA, 10 mM MgCl2, 2 mM DTT and 0.01% Tween20. Test compounds of the invention were added in reaction buffer at a range of concentrations from 0.1 nM to 30 μM. Following addition of EDTA (Sigma E7889, 10 mM) to stop the reaction, Europium-labelled mouse monoclonal antibody recognizing phospho-Thr232 in MBP (Perkin Elmer TRF0201, 1 nM) was added. After one hour, the reaction plates were read using a fluorescence reader (EnVision®, Perkin Elmer) at 620 nm and 665 nm (excitation at 340 nm); when the Europium donor fluorophore is excited by light at 340 nm, an energy transfer (620 nm) to the acceptor occurs, which will then emit light at 665 nm.
On the technique in general: TR-FRET usually uses a lanthanide donor and a delayed reading to cut background.

Experiment [1] has as its target T2, His-TEV-DYRK1A Kinase domain (aa127-485) (Homo sapiens, UniProt Q13627).
T2 construct: His-TEV-DYRK1A Kinase domain (aa127-485); His tag (N); TEV protease cleavage site (N)
As to the kind of experiment: Kinase ADP assay (ADP Hunter), DYRK1A kinase domain. It counts as biochemical. To be noted: 20 μM ATP. In a few lines:
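Readout is ADP Hunter fluorescence at 590 nm, developed 20 min at 30 °C after the kinase step. That step ran 10 min at 30 °C in Hepes pH 7.4 (10 mM MgCl2, 1 mM EGTA, 0.02% Tween20) containing 20 μM ATP, 40 μM peptide and 20 nM enzyme plus compound.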

Experiment [2] addresses T3, DYRK1A (Homo sapiens, UniProt Q13627). As to the kind of experiment: Kinase TR-FRET assay, DYRK1A. It counts as biochemical. Details: full-length, wild-type human DYRK1A (NM_001396) with an HA tag; expressed in transfected cells; host or cells: human U2-OS osteosarcoma cells, transient transfection of a pcDNA3.1 plasmid. As to conditions: full-length human kinase, 10 μM ATP. In a few lines: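 Compounds tested at 0.1 nM to 30 μM in reaction buffer; reaction stopped with 10 mM EDTA. Phosphorylated MBP detected with 1 nM Europium-labelled anti-phospho-Thr232 antibody by TR-FRET.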

In experiment [3] the target is T3, DYRK1A. As to the kind of experiment: Cellular DYRK1 autophosphorylation assay in U2-OS cells. The experiment is classed as cell-based. Details: full-length, wild-type human DYRK1A (NM_001396) with an HA tag; expressed in transfected cells; host or cells: human U2-OS osteosarcoma cells, transient transfection of a pcDNA3.1 plasmid. To be noted: U2-OS cells transfected with HA-tagged human DYRK1A, 5 hours exposure; read-out: IC50 (μM) P-Ser520-Dyrk1A -Cell assay. In a few lines: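 IC50 derived from dose-response curves of phospho-Ser520-DYRK1A (blots normalised to total DYRK1A), quantified by either immunoblotting with chemiluminescence or Mesoscale electrochemiluminescent ELISA. Compounds applied to U2-OS cells across several concentrations for 5 hours.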

The target in another experiment is T4, DYRK1B (Homo sapiens, UniProt Q9Y463).
T4 construct: full-length human kinases from Carna Biosciences; purchased Carna Biosciences 04-131
T4 sequence (Q9Y463 whole entry): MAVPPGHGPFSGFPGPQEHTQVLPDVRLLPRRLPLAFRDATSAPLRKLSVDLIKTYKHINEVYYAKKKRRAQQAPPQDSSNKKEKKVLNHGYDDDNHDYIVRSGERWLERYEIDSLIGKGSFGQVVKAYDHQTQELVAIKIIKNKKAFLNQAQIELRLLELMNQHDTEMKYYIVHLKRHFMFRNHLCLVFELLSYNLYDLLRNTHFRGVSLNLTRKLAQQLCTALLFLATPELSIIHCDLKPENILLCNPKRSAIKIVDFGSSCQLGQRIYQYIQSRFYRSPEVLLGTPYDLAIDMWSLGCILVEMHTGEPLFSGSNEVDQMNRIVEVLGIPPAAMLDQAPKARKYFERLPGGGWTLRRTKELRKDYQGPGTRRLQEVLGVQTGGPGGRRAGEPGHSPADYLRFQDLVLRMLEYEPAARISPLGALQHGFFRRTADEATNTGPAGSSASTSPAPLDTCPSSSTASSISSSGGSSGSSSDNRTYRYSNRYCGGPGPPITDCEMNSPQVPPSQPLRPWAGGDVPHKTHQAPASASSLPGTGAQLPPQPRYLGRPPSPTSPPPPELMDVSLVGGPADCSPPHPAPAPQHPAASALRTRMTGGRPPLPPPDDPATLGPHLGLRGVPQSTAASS
As to the kind of experiment: Kinase TR-FRET assay, DYRK1B. The experiment is classed as biochemical. To be noted: full-length human kinase, 10 μM ATP. As to the method: Inhibition of the enzymatic activity of human kinases was evaluated in a Time-Resolved Fluorescence Resonance Energy Transfer (TR-FRET) assay in 384-well reaction plates. […] Test compounds of the invention were added in reaction buffer at a range of concentrations from 0.1 nM to 30 μM. Following addition of EDTA (Sigma E7889, 10 mM) to stop the reaction, Europium-labelled mouse monoclonal antibody recognizing phospho-Thr232 in MBP (Perkin Elmer TRF0201, 1 nM) was added.

T1 sequence (P50750 whole entry): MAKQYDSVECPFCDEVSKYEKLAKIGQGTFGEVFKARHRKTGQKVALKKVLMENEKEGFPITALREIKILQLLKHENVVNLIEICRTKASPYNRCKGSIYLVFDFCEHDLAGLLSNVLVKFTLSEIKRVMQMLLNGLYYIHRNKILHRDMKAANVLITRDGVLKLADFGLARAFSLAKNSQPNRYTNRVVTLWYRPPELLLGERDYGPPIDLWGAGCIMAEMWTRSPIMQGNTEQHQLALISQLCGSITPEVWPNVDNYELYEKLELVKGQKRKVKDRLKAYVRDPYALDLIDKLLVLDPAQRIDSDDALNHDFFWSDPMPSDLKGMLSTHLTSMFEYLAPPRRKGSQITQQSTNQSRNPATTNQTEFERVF
T1 sequence (O60563 whole entry partner): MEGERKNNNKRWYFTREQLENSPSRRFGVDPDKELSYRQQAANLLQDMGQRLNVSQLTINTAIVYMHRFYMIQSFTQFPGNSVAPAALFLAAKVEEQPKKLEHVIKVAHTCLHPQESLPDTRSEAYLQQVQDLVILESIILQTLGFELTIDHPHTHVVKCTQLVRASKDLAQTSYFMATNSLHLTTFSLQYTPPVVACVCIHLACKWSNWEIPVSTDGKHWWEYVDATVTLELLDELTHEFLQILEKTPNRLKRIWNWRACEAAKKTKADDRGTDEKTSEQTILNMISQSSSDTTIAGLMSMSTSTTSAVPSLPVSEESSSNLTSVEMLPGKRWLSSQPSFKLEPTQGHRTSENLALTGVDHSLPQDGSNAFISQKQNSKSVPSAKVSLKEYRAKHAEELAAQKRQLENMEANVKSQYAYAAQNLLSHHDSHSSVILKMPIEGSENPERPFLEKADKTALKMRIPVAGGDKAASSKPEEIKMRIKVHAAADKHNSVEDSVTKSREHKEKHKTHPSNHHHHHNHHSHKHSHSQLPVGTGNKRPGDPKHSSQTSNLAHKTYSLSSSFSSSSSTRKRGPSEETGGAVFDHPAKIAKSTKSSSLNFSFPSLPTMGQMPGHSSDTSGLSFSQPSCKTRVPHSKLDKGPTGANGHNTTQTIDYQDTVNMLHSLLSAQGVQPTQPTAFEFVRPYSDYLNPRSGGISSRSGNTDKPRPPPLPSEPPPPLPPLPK

Turning to `Cc1nc2ccc(-c3cc(N)nc(N)c3)nc2n1C1CCCC1` [Example 1, 4-(3-cyclopentyl-2-methyl-3H-imidazo[4,5-b]pyridin-5-yl)pyridine-2,6-diamine], the IC50 at CDK9 is 0.314 µM; in experiment [1], 0.01 µM; against DYRK1A [2] it was 0.013 µM; at DYRK1A [3], 0.08 µM; at DYRK1B it was 0.004 µM.
The like results for `CCCn1c(C)nc2ccc(-c3cc(N)nc(N)c3)nc21` [Example 2, 4-(2-methyl-3-propyl-3H-imidazo[4,5-b]pyridin-5-yl)pyridine-2,6-diamine] were, in that order, 0.383 µM, 0.01 µM, 0.008 µM, 0.2 µM and 0.001 µM.
The like results for `Cc1nc2ccc(-c3cc(N)nc(N)c3)nc2n1CCC1CCCCC1` [Example 15, 4-[3-(2-cyclohexylethyl)-2-methyl-3H-imidazo[4,5-b]pyridin-5-yl]pyridine-2,6-diamine] were, in that order, 0.47 µM, 0.011 µM, 0.004 µM, 0.11 µM and 0.008 µM.
The corresponding values for `Cc1nc2ccc(-c3cc(N)nc(N)c3)nc2n1CCc1ccco1` [Example 19, 4-{3-[2-(furan-2-yl)ethyl]-2-methyl-3H-imidazo[4,5-b]pyridin-5-yl}pyridine-2,6-diamine] are 1.95 µM, 0.012 µM, 0.003 µM, 0.226 µM and 0.003 µM.
For `Cc1nc2ccc(-c3cc(N)nc(N)c3)nc2n1C(C)(C)C` [Example 25, 4-(3-tert-butyl-2-methyl-3H-imidazo[4,5-b]pyridin-5-yl)pyridine-2,6-diamine], the IC50 amounted to 1.84 µM at CDK9; 0.01 µM in experiment [1]; 0.007 µM on DYRK1A [2]; 0.228 µM on DYRK1A [3]; 0.006 µM on DYRK1B.
On to `Cc1nc2ccc(-c3cc(N)nc(N)c3)nc2n1CCOc1cccc2ccccc12` [Example 27, 4-{2-methyl-3-[2-(naphthalen-1-yloxy)ethyl]-3H-imidazo[4,5-b]pyridin-5-yl}pyridine-2,6-diamine], for which the IC50 at CDK9 was over 10 µM; in experiment [1] it was 0.056 µM; against DYRK1A [2], 0.015 µM; at DYRK1B, 0.005 µM.
In the case of `Cc1nc2ccc(-c3cc(N)nc(N)c3)nc2n1CCc1ccsc1` [Example 29, 4-{2-methyl-3-[2-(thiophen-3-yl)ethyl]-3H-imidazo[4,5-b]pyridin-5-yl}pyridine-2,6-diamine], the IC50 against CDK9 was 3.44 µM; in experiment [1], 0.011 µM; against DYRK1A [2], 0.004 µM; at DYRK1A [3] it was 0.057 µM; at DYRK1B it was 0.011 µM.
Consider `Cc1nc2ccc(-c3cc(N)nc(N)c3)nc2n1CC(C)(C)C` [Example 30, 4-[3-(2,2-dimethylpropyl)-2-methyl-3H-imidazo[4,5-b]pyridin-5-yl]pyridine-2,6-diamine], for which the IC50 at CDK9 is 3.57 µM; in experiment [1], 0.018 µM; at DYRK1A [2], 0.017 µM; against DYRK1B it was 0.125 µM.
Take `Cc1nc2ccc(-c3cc(N)nc(N)c3)nc2n1CC(C)C` [Example 31, 4-[2-methyl-3-(2-methylpropyl)-3H-imidazo[4,5-b]pyridin-5-yl]pyridine-2,6-diamine]: the IC50 was 1.78 µM against CDK9; 0.01 µM in experiment [1]; 0.009 µM at DYRK1A [2]; 0.07 µM at DYRK1A [3]; 0.002 µM against DYRK1B.
Consider `CCC(C)Cn1c(C)nc2ccc(-c3cc(N)nc(N)c3)nc21` (stereo not shown) [Example 34, 4-[2-methyl-3-(2-methylbutyl)-3H-imidazo[4,5-b]pyridin-5-yl]pyridine-2,6-diamine], for which the IC50 at CDK9 worked out at 1.4 µM; in experiment [1] it was 0.01 µM; against DYRK1A [2] it was 0.03 µM; against DYRK1B, 0.015 µM.
On to `Cc1nc2ccc(-c3cc(N)nc(N)c3)nc2n1Cc1ccccc1Cl` [Example 47, 4-[3-(2-chlorobenzyl)-2-methyl-3H-imidazo[4,5-b]pyridin-5-y]pyridine-2,6-diamine], for which the IC50 turned out to be 0.728 µM at CDK9, 0.025 µM in experiment [1], 0.003 µM against DYRK1A [2] and 0.046 µM against DYRK1B.
As for `Cc1nc2ccc(-c3cc(N)nc(N)c3)nc2n1Cc1cc(Cl)ccc1Cl` [Example 57, 4-[3-(2,5-dichlorobenzyl)-2-methyl-3H-imidazo[4,5-b]pyridin-5-yl]pyridine-2,6-diamine], the IC50 on CDK9 is over 10 µM; in experiment [1] it was 0.085 µM; against DYRK1A [2], 0.026 µM; on DYRK1B it was 0.005 µM.
The like results for `Cc1nc2ccc(-c3cc(N)nc(N)c3)nc2n1CCc1ccc(Cl)cc1Cl` [Example 59, 4-{3-[2-(2,4-dichlorophenyl)ethyl]-2-methyl-3H-imidazo[4,5-b]pyridin-5-yl}pyridine-2,6-diamine] were, in that order, over 10 µM, 0.021 µM, 0.002 µM and 0.003 µM.
As for `CCCC(C)n1c(C)nc2ccc(-c3cc(N)nc(N)c3)nc21` (stereo not shown) [Example 64, 4-[2-methyl-3-(pentan-2-yl)-3H-imidazo[4,5-b]pyridin-5-yl]pyridine-2,6-diamine], the IC50 was over 10 µM against CDK9, 0.026 µM in experiment [1], 0.009 µM against DYRK1A [2] and 0.03 µM against DYRK1B.
`CCC(CC)n1c(C)nc2ccc(-c3cc(N)nc(N)c3)nc21` [Example 68, 4-[2-methyl-3-(pentan-3-yl)-3H-imidazo[4,5-b]pyridin-5-yl]pyridine-2,6-diamine]: the IC50 against CDK9 is over 10 µM; in experiment [1], 0.193 µM; against DYRK1A [2], 0.029 µM; on DYRK1B, 0.132 µM.
As to `CCCCn1c(C)nc2ccc(-c3cc(N)nc(NCc4ccccc4)c3)nc21` [Example 231, N-benzyl-4-(3-butyl-2-methyl-3H-imidazo[4,5-b]pyridin-5-yl)pyridine-2,6-diamine], the IC50 on CDK9 is over 10 µM; in experiment [1] it was 0.046 µM; at DYRK1A [2], 0.011 µM; against DYRK1B, 0.003 µM.
On to `CCCCn1c(C)nc2ccc(-c3cc(N)nc(NC(=O)Cc4ccccc4)c3)nc21` [Example 235, N-[6-amino-4-(3-butyl-2-methyl-3H-imidazo[4,5-b]pyridin-5-yl)pyridin-2-yl]-2-phenylacetamide], for which the IC50 against CDK9 was over 10 µM; in experiment [1], 0.207 µM; against DYRK1A [2], 0.013 µM; against DYRK1B it was 0.091 µM.
The like results for `Cc1nc2ccc(-c3ccnc(N)c3)nc2n1CCC1CCCCC1` [Example 237, 4-[3-(2-cyclohexylethyl)-2-methyl-3H-imidazo[4,5-b]pyridin-5-yl]pyridin-2-amine] were, in that order, 0.718 µM, 0.045 µM, 0.005 µM and 0.005 µM.
